Experimental data published in patent US20120077957A1, “Lactam-Bridged Melanocortin Receptor-Specific Peptides” (PALATIN TECHNOLOGIES, INC., priority 2009, published 2012).
Read-outs that look alike come from different tables or passages of the source. Bridge positions count the residues as written; N and C are the ends. Square brackets hold non-standard residues; d marks the D form. Peptide text beside a SMILES is read from it. Orn = NCCC[C@H](N)C(=O)O

Target: T1, human MC4-R (Homo sapiens, UniProt P32245)
T1 construct: expressed in transfected cells; host or cells: HEK293 T-REx (tetracycline-regulated, Invitrogen); cell line from Palatin Technologies with license from the University of Michigan
Experiment: cAMP functional assay in HEK-293 T-REx cells expressing human MC4-R, induced with doxycycline 0.1 ng/mL (low density)
Type: cell-based
Settings: for Emax: HEK293-T-REx; for EC50: human MC4-R cAMP assay, read-out: Ec50
Text: A HEK293 cell line transfected with human MC4-R (from Palatin Technologies, US, with license from the University of Michigan) was used. The human MC4-R was introduced to HEK293 by using the T-REx™ System, Invitrogen. The T-REx™ System employs a tetracycline-regulated mammalian expression system that uses regulatory elements from the E. coli Tn10-encoded tetracycline (Tet) resistance operon. By use of the T-REx™ System, expression of the gene of interest, the human MC4-R gene, is repressed in the absence of tetracycline or doxycycline and induced in the presence of tetracycline or doxycycline (see T-REx™ System Manual, published by Invitrogen).
Cells were then counted and volume was adjusted to 5×10^4 cells per 200 μL.
The cells were then dispensed into 96-well plates (BD 353916) in 198 μL (about 5×10^4) cells/well and incubated for 10 minutes at 37° C. The compound to be tested was diluted with DMSO to a final concentration of 1 mM. Serial dilution was prepared in polypropylene removable 12-well library tube strips (VWR cat #83009-682). 120 μL of the 1 mM compound stock was pipetted in the second column on the plate.
2 μL of the standard, [Nle^4, D-Phe^7]alpha-Melanocyte Stimulating Hormone (NDP-α-MSH), or compound was added to the 96-well plate using the Janus robotic system. All assay samples were run in duplicate (i.e. each sample was in two low dox and two high dox plates, respectively). The plates were gently shaken and incubated for 15 minutes at 37° C. The reaction was stopped by adding 15 μL of lysis buffer per well and the plates were shakened for 30 minutes at room temperature.
Agonist stimulation of the MC4-R activates adenylate cyclase, which is an enzyme that catalyses the formation 3′,5′-cyclic adenosine monophosphate (cAMP) from adenosine triphosphate (ATP). […] Fluoresence ratios were then calculated as described in the CisBio HTRF kit, with GraphPad Prism software used to plot the change in fluorescence percent values versus cAMP concentration using the variable slope dose response curve and, based on calculated cAMP concentrations, to determine EC50 and Emax values. […]

[1] = maximal cAMP stimulation, NDP-α-MSH = 100%, doxycycline 0.1 ng/mL, averages of all comparable assays, read-out: Emax
[2] = doxycycline 0.1 ng/mL, averages of all comparable assays

T1 sequence (P32245 whole entry): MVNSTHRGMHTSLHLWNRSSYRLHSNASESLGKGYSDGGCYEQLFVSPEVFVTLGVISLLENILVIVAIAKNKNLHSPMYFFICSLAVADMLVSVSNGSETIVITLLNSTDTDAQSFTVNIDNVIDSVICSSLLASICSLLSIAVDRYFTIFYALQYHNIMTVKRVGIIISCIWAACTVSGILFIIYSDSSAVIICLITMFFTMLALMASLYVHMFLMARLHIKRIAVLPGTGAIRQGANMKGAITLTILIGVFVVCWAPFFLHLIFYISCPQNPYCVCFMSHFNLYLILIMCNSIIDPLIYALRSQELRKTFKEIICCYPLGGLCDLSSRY

| SMILES | Emax [1] | EC50 [2] | Emax |
| --- | --- | --- | --- |
| CC(=O)N[C@@H](CCCNC(=N)N)C(=O)N[C@H]1CCC(=O)NCCC[C@@H](C(=O)O)NC(=O)[C@H](Cc2c[nH]c3ccccc23)NC(=O)[C@H](CCCNC(=N)N)NC(=O)[C@@H](Cc2ccccc2)NC(=O)[C@H](Cc2c[nH]cn2)NC1=O [No. 3, Ac-Arg-cyclo(Glu-His-D-Phe-Arg-Trp-Orn)-OH] (Ac-REH[dF]RW[Orn]-OH; lactam 2-7) | 83% | 0.7 nM |  |
| CC(=O)N[C@@H](CCCNC(=N)N)C(=O)N[C@H]1CC(=O)NCCCC[C@@H](C(=O)O)NC(=O)[C@H](Cc2c[nH]c3ccccc23)NC(=O)[C@H](CCCNC(=N)N)NC(=O)[C@@H](Cc2ccccc2)NC(=O)[C@H](Cc2c[nH]cn2)NC1=O [reference compound] | 91% | 4 nM |  |
| CC(=O)N[C@@H](CCCNC(=N)N)C(=O)N[C@H]1CC(=O)NCCCC[C@@H](C(N)=O)NC(=O)[C@H](Cc2c[nH]c3ccccc23)NC(=O)[C@H](CCCNC(=N)N)NC(=O)[C@@H](Cc2ccccc2)NC(=O)[C@H](CCCCN)NC1=O [reference compound] (Ac-RDK[dF]RWK-NH2; lactam 2-7) | 97% | 8 nM |  |
| CC(=O)N[C@@H](CCCNC(=N)N)C(=O)N[C@H]1CC(=O)NCCCC[C@@H](C(N)=O)NC(=O)[C@H](Cc2c[nH]c3ccccc23)NC(=O)[C@H](CCCNC(=N)N)NC(=O)[C@@H](Cc2ccccc2)NC(=O)[C@H](CCCNC(=N)N)NC1=O [reference compound] | 68% |  |  |
| CCCC[C@H](NC(C)=O)C(=O)N[C@H]1CC(=O)NCCCC[C@@H](C(=O)O)NC(=O)[C@H](Cc2c[nH]c3ccccc23)NC(=O)[C@H](CCCNC(=N)N)NC(=O)[C@@H](Cc2ccccc2)NC(=O)[C@H](Cc2c[nH]cn2)NC1=O [Ac-Nle-cyclo(Asp-His-D-Phe-Arg-Trp-Lys)-OH, reference compound] |  |  | 81% |
| CC(=O)N[C@@H](CCCNC(=N)N)C(=O)N[C@H]1CC(=O)NCCCC[C@@H](C(=O)O)NC(=O)[C@H](Cc2c[nH]c3ccccc23)NC(=O)[C@H](CCCNC(=N)N)NC(=O)[C@@H](Cc2ccccc2)NC(=O)[C@H](CCN)NC1=O [reference compound] | 91% |  |  |
| CC(=O)N[C@@H](CCCNC(=N)N)C(=O)N[C@H]1CCC(=O)NCCC[C@@H](C(=O)O)NC(=O)[C@H](Cc2c[nH]c3ccccc23)NC(=O)[C@H](CCCNC(=N)N)NC(=O)[C@@H](Cc2ccccc2)NC(=O)[C@H](CCCN)NC1=O [No. 7, Ac-Arg-cyclo(GIu-Orn-D-Phe-Arg-Trp-Orn)-OH] | 92% | 4 nM |  |
| CC(=O)N[C@H](CCCNC(=N)N)C(=O)N[C@H]1CC(=O)NCCCC[C@@H](C(N)=O)NC(=O)[C@H](Cc2c[nH]c3ccccc23)NC(=O)[C@H](CCCNC(=N)N)NC(=O)[C@@H](Cc2ccccc2)NC(=O)[C@H](Cc2c[nH]cn2)NC1=O [reference compound] | 89% |  |  |
| CC(=O)N[C@@H](CCCNC(=N)N)C(=O)N[C@H]1CC(=O)NCCCC[C@@H](C(=O)O)NC(=O)[C@H](Cc2c[nH]c3ccccc23)NC(=O)[C@H](CCCNC(=N)N)NC(=O)[C@@H](Cc2ccccc2)NC(=O)[C@H](CCC(N)=O)NC1=O [reference compound] | 80% | 19 nM |  |
| CC(=O)N[C@@H](CCCNC(=N)N)C(=O)N[C@H]1CC(=O)NCCCC[C@@H](C(N)=O)NC(=O)[C@H](Cc2c[nH]c3ccccc23)NC(=O)[C@H](CCCNC(=N)N)NC(=O)[C@@H](Cc2ccccc2)NC(=O)[C@@H]2C[C@@H](O)CN2C1=O [reference compound] | 39% |  |  |
| CC(=O)N[C@@H](CCCNC(=N)N)C(=O)N[C@H]1CC(=O)NCCCC[C@@H](C(=O)O)NC(=O)[C@H](Cc2c[nH]c3ccccc23)NC(=O)[C@H](CCCNC(=N)N)NC(=O)[C@@H](Cc2ccccc2)NC(=O)[C@H](CCCNC(=N)N)NC1=O [reference compound] | 75% |  |  |
| CC(=O)N[C@@H](CCCNC(=N)N)C(=O)N[C@H]1CCC(=O)NCCC[C@@H](C(=O)O)NC(=O)[C@H](Cc2c[nH]c3ccccc23)NC(=O)[C@H](CCCNC(=N)N)NC(=O)[C@@H](Cc2ccccc2)NC(=O)[C@H](CCCNC(=N)N)NC1=O [No. 9, Ac-Arg-cyclo(Glu-Arg-D-Phe-Arg-Trp-Orn)-OH] | 82% | 2 nM |  |
| CC(=O)N[C@@H](CCCNC(=N)N)C(=O)N[C@H]1CCCNC(=O)CC[C@@H](C(=O)O)NC(=O)[C@H](Cc2c[nH]c3ccccc23)NC(=O)[C@H](CCCNC(=N)N)NC(=O)[C@@H](Cc2ccccc2)NC(=O)[C@H](CCN)NC1=O [No. 42, Ac-Arg-cyclo(Orn-Dab-D-Phe-Arg-Trp-Glu)-OH] | 100% |  |  |
| CC(=O)N[C@@H](CCCNC(=N)N)C(=O)N[C@H]1CC(=O)NCCCC[C@@H](C(N)=O)NC(=O)[C@H](Cc2c[nH]c3ccccc23)NC(=O)[C@H](CCCNC(=N)N)NC(=O)[C@@H](Cc2ccccc2)NC(=O)[C@H](Cc2c[nH]cn2)NC1=O [reference compound] | 83% |  |  |
| CC(=O)N[C@@H](CCCNC(=N)N)C(=O)N[C@H]1CC(=O)NCCCC[C@@H](C(N)=O)NC(=O)[C@H](Cc2c[nH]c3ccccc23)NC(=O)[C@H](CCCNC(=N)N)NC(=O)[C@@H](Cc2ccccc2)NC(=O)[C@@H]2CCCN2C1=O [reference compound] | 43% |  |  |

The next lines start with results.

| Emax [1] | EC50 [2] | SMILES | Emax |
| --- | --- | --- | --- |
| 81% |  | CC(=O)N[C@@H](CCCNC(=N)N)C(=O)N[C@H]1CCC(=O)NCCC[C@@H](C(=O)O)NC(=O)[C@H](Cc2c[nH]c3ccccc23)NC(=O)[C@H](CCCNC(=N)N)NC(=O)[C@@H](Cc2ccccc2)NC(=O)[C@H](CCC(N)=O)NC1=O [No. 11, Ac-Arg-cyclo(Glu-Gln-D-Phe-Arg-Trp-Orn)-OH] |  |
| 75% |  | CC(=O)NCC[C@@H]1NC(=O)[C@@H](NC(=O)[C@H](CCCNC(=N)N)NC(C)=O)CCC(=O)NCCC[C@@H](C(N)=O)NC(=O)[C@H](Cc2c[nH]c3ccccc23)NC(=O)[C@H](CCCNC(=N)N)NC(=O)[C@@H](Cc2ccccc2)NC1=O [No. 18, Ac-Arg-cyclo(Glu-Dab(Acetyl)-D-Phe-Arg-Trp-Orn)-NH2] |  |
| 35% |  | CC(=O)N[C@H]1CC(=O)NCCCC[C@@H](C(N)=O)NC(=O)[C@H](Cc2c[nH]c3ccccc23)NC(=O)[C@H](CCCNC(=N)N)NC(=O)[C@@H](Cc2ccccc2)NC(=O)[C@H](CCC(N)=O)NC1=O [reference compound] (Ac-DQ[dF]RWK-NH2; lactam 1-6) |  |
| 76% | 12 nM | CC(=O)N[C@@H](CCCNC(=N)N)C(=O)N[C@H]1CCC(=O)NCCC[C@@H](C(=O)O)NC(=O)[C@H](Cc2c[nH]c3ccccc23)NC(=O)[C@H](CCCNC(=N)N)NC(=O)[C@@H](Cc2ccccc2)NC(=O)[C@H](CC(N)=O)NC1=O [No. 20, Ac-Arg-cyclo(Glu-Asn-D-Phe-Arg-Trp-Orn)-OH] |  |
| 94% | 2 nM | CC(=O)N[C@@H](CCCNC(=N)N)C(=O)N[C@H]1CCC(=O)NCCC[C@@H](C(=O)O)NC(=O)[C@H](Cc2c[nH]c3ccccc23)NC(=O)[C@H](CCCNC(=N)N)NC(=O)[C@@H](Cc2ccccc2)NC(=O)[C@H](CCN)NC1=O [No. 5, Ac-Arg-cyclo(Glu-Dab-D-Phe-Arg-Trp-Orn)-OH] |  |
| 87% |  | CC(=O)N[C@@H](CCCNC(=N)N)C(=O)N[C@H]1CCC(=O)NCCC[C@@H](C(N)=O)NC(=O)[C@H](Cc2c[nH]c3ccccc23)NC(=O)[C@H](CCCNC(=N)N)NC(=O)[C@@H](Cc2ccccc2)NC(=O)[C@H](CCCNC(N)=O)NC1=O [No. 15, Ac-Arg-cyclo(Glu-Cit-D-Phe-Arg-Trp-Orn)-NH2] |  |
| 49% | 26 nM | CC(=O)N[C@H]1CCC(=O)NCCC[C@@H](C(N)=O)NC(=O)[C@H](Cc2c[nH]c3ccccc23)NC(=O)[C@H](CCCNC(=N)N)NC(=O)[C@@H](Cc2ccccc2)NC(=O)[C@H](CCC(N)=O)NC1=O [No. 21, Ac-cyclo(Glu-Gln-D-Phe-Arg-Trp-Orn)-NH2] (Ac-EQ[dF]RW[Orn]-NH2; lactam 1-6) |  |
